Laboratory results from ChEMBL document CHEMBL3804790, “Fragment-Based Approaches to the Development of Mycobacterium tuberculosis CYP121 Inhibitors” (J Med Chem, 2016).

system: Mycobacterium tuberculosis; assay: Antimycobacterial activity against Mycobacterium tuberculosis H37Rv assessed as bacterial growth inhibition after 2 weeks; type: functional; details: 336 h

Question: With `COc1ccc(-c2n[nH]c(N)c2-c2cccc(-c3cccc(N)c3)c2)cc1` as the molecule, how does the MIC90 read?
Answer: ≥ 50 µM

Question: With `Nc1cccc(-c2cc(-c3c(-c4ccc(O)cc4)n[nH]c3N)ccc2O)c1` as the molecule, how does the MIC90 read?
Answer: ≥ 50 µM

Question: Which MIC90 does the source give for `Oc1ccc(CNc2[nH]nc(-c3ccc(O)cc3)c2-c2ccc(O)cc2)cc1` here?
Answer: ≥ 50 µM

Question: Which MIC90 does the source give for `Nc1[nH]nc(-c2ccc(O)cc2)c1-c1ccc(O)cc1` here?
Answer: ≥ 50 µM

Question: Which MIC90 does the source give for `Nc1cccc(-c2cccc(-c3c(-c4ccc(O)cc4)n[nH]c3N)c2)c1` here?
Answer: ≥ 50 µM

Question: For `Nc1cccc(-c2cccc(-c3cn[nH]c3N)c2)c1`, which MIC90 is on record?
Answer: ≥ 50 µM

target: Cytochrome P450 3A4 (Homo sapiens, UniProt P08684); assay: not given; details: not given
Sequence (P08684 whole entry): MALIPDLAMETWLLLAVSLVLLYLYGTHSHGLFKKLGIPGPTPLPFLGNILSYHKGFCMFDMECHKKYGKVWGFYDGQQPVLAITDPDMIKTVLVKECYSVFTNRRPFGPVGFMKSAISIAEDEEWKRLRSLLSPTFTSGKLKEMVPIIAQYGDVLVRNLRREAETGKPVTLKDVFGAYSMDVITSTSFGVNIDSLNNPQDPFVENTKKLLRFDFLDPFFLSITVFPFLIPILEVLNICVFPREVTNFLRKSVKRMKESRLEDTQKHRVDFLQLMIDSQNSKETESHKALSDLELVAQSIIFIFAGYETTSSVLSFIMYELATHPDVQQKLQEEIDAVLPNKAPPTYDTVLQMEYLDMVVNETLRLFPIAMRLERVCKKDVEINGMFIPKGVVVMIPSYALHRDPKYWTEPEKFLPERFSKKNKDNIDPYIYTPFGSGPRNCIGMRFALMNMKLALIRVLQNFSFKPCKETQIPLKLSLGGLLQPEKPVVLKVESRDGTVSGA

Question: With `Oc1ccc(CNc2[nH]nc(-c3ccc(O)cc3)c2-c2ccc(O)cc2)cc1` as the molecule, how does the IC50 read?
Answer: > 25 µM

Question: With `Nc1cccc(-c2cccc(-c3c(-c4ccc(O)cc4)n[nH]c3N)c2)c1` as the molecule, how does the IC50 read?
Answer: 11.3 µM

Question: For `Nc1cccc(-c2cccc(-c3cn[nH]c3N)c2)c1`, which IC50 is on record?
Answer: > 25 µM

target: T1, Steroid C26-monooxygenase (Mycobacterium tuberculosis, UniProt P9WPP1); assay: not given; parameters: species or system C41(DE3); details: not given
T1 sequence (P9WPP1 whole entry): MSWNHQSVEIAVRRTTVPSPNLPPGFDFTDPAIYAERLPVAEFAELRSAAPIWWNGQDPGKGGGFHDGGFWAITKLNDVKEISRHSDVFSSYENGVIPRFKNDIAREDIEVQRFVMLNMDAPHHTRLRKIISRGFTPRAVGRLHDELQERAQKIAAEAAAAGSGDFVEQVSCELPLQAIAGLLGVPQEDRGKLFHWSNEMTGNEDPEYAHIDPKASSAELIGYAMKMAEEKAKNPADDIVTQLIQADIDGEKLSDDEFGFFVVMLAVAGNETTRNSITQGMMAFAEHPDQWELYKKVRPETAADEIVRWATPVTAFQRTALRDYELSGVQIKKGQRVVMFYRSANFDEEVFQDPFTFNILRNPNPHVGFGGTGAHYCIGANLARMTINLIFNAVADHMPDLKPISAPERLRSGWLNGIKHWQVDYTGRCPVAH

Question: For `Nc1cccc(-c2cccc(-c3c(-c4ccc(O)cc4)n[nH]c3N)c2)c1`, which Kd is on record?
Answer: 18.4 µM

target: Cytochrome P450 2C9 (Homo sapiens, UniProt P11712); assay: Inhibition of CYP2C9 in human liver microsomes using tolbutamide as substrate by LC-MS/MS analysis; type: ADME; details: not given
Sequence (P11712 whole entry): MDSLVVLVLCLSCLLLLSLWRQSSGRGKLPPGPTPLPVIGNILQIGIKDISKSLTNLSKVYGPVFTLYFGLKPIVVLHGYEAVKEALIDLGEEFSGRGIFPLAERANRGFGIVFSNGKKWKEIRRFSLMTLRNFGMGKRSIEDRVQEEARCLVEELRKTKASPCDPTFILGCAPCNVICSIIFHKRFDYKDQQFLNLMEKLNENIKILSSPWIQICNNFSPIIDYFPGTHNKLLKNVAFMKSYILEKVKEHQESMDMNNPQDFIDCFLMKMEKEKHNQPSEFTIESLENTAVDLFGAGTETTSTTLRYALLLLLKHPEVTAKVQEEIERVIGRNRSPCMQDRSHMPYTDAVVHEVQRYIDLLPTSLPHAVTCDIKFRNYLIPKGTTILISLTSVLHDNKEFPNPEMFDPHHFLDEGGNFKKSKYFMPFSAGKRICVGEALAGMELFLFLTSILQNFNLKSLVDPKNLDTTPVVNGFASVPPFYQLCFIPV

Question: With `Oc1ccc(CNc2[nH]nc(-c3ccc(O)cc3)c2-c2ccc(O)cc2)cc1` as the molecule, how does the IC50 read?
Answer: > 25 µM

Question: Which IC50 does the source give for `Nc1cccc(-c2cccc(-c3c(-c4ccc(O)cc4)n[nH]c3N)c2)c1` here?
Answer: > 25 µM

Question: Which IC50 does the source give for `Nc1cccc(-c2cccc(-c3cn[nH]c3N)c2)c1` here?
Answer: > 25 µM

target: Cytochrome P450 2C19 (Homo sapiens, UniProt P33261); assay: Inhibition of CYP2C19 in human liver microsomes using mephenytoin as substrate by LC-MS/MS analysis; type: ADME; details: not given
Sequence (P33261 whole entry): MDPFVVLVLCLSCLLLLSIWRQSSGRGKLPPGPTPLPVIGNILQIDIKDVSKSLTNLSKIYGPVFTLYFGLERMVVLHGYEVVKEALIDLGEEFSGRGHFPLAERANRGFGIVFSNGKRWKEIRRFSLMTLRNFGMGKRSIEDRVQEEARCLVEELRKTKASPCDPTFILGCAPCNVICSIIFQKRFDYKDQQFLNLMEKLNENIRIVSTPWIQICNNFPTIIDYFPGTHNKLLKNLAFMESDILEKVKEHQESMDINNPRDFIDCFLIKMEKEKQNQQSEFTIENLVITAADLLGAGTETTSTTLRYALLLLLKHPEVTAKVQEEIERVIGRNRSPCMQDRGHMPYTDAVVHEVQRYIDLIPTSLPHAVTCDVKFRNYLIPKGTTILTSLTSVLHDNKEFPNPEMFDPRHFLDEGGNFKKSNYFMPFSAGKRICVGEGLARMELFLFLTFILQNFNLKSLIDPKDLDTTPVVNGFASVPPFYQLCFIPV

Question: With `Oc1ccc(CNc2[nH]nc(-c3ccc(O)cc3)c2-c2ccc(O)cc2)cc1` as the molecule, how does the IC50 read?
Answer: > 25 µM

Question: Which IC50 does the source give for `Nc1cccc(-c2cccc(-c3c(-c4ccc(O)cc4)n[nH]c3N)c2)c1` here?
Answer: > 25 µM

Question: For `Nc1cccc(-c2cccc(-c3cn[nH]c3N)c2)c1`, which IC50 is on record?
Answer: > 25 µM

system: CYP1A (relative to Mycobacterium tuberculosis CYP121); assay: in vitro; details: human, c41(de3)
Description: Selectivity ratio of IC50 for human CYP1A to Kd for Mycobacterium tuberculosis His6-tagged CYP121 expressed in Escherichia coli C41 (DE3) cells

Question: Which selectivity ratio does the source give for `Nc1cccc(-c2cccc(-c3c(-c4ccc(O)cc4)n[nH]c3N)c2)c1` here?
Answer: 1430

Question: With `Nc1cccc(-c2cccc(-c3cn[nH]c3N)c2)c1` as the molecule, how does the selectivity ratio read?
Answer: 0.09

target: T2, Methyl-branched lipid omega-hydroxylase (Mycobacterium tuberculosis (strain ATCC 25618 / H37Rv), UniProt P9WPP3); assay: not given; parameters: species or system C41(DE3); details: not given
T2 sequence (P9WPP3 whole entry): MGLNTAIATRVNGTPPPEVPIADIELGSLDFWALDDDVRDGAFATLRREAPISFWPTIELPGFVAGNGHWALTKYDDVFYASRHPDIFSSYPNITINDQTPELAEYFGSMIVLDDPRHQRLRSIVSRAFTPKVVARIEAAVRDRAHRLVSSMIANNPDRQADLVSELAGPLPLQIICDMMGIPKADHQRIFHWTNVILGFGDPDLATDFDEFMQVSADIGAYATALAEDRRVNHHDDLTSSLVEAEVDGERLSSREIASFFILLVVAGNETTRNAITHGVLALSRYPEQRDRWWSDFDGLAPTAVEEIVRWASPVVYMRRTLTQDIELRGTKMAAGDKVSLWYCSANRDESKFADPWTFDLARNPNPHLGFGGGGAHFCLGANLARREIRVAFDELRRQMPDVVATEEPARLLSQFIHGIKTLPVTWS

Question: Which Kd does the source give for `Nc1cccc(-c2cccc(-c3c(-c4ccc(O)cc4)n[nH]c3N)c2)c1` here?
Answer: 0.86 µM

system: not listed separately; assay: Inhibition of CYP1A1/CYP1A2 in human liver microsomes using ethoxyresorufin as substrate by fluorescence analysis; type: ADME; details: not given

Question: Which IC50 does the source give for `Oc1ccc(CNc2[nH]nc(-c3ccc(O)cc3)c2-c2ccc(O)cc2)cc1` here?
Answer: > 25 µM

Question: With `Nc1cccc(-c2cccc(-c3c(-c4ccc(O)cc4)n[nH]c3N)c2)c1` as the molecule, how does the IC50 read?
Answer: 21.4 µM

Question: Which IC50 does the source give for `Nc1cccc(-c2cccc(-c3cn[nH]c3N)c2)c1` here?
Answer: 1.22 µM

target: T3, Mycocyclosin synthase (Mycobacterium tuberculosis, UniProt P9WPP7); assay: not given; parameters: species or system C41(DE3); details: c41(de3)
T3 sequence (P9WPP7 whole entry): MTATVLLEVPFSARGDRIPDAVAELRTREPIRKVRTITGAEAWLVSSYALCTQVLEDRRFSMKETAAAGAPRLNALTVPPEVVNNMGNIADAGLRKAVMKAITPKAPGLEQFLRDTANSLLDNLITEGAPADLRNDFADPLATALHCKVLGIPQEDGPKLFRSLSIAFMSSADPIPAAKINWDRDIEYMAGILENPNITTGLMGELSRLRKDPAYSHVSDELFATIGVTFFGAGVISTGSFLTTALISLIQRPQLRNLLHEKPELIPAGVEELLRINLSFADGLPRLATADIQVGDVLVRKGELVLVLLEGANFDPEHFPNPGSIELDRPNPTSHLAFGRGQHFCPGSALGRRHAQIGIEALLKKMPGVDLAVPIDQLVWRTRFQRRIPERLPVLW

Question: For `COc1ccc(-c2n[nH]c(N)c2-c2cccc(-c3cccc(N)c3)c2)cc1`, which Kd is on record?
Answer: ND(Insoluble)

same assay, conditions: read-out: Kd

Question: For `Cc1ccc2cc(N)ccc2n1`, which Kd is on record?
Answer: 400 µM

Question: Which Kd does the source give for `Oc1ccc(Nc2[nH]nc(-c3ccc(O)cc3)c2-c2ccc(O)cc2)cc1` here?
Answer: 15 µM

Question: Which Kd does the source give for `Nc1cccc(Cn2cncn2)c1` here?
Answer: 1600 µM

Question: With `COc1ccc(-c2cn[nH]c2N)cc1-c1cccc(N)c1` as the molecule, how does the Kd read?
Answer: 68 µM

Question: For `NC(=O)c1cc(Cl)ccc1N`, which Kd is on record?
Answer: 3400 µM

Question: With `Nc1cccc(-c2cc(-c3cn[nH]c3N)ccc2OCc2ccccc2)c1` as the molecule, how does the Kd read?
Answer: 28 µM

Question: With `Nc1cc(-c2ccc(O)cc2)n[nH]1` as the molecule, how does the Kd read?
Answer: 1300 µM

Question: Which Kd does the source give for `O=C(Nc1[nH]nc(-c2ccc(O)cc2)c1-c1ccc(O)cc1)c1ccncc1` here?
Answer: 600 µM

Question: For `Oc1ccc(CNc2[nH]nc(-c3ccc(O)cc3)c2-c2ccc(O)cc2)cc1`, which Kd is on record?
Answer: 6.3 µM

Question: Which Kd does the source give for `Nc1[nH]nc(-c2cccc(O)c2)c1-c1ccc(O)cc1` here?
Answer: 60 µM

Question: With `Oc1ccc(-c2n[nH]c(NCc3c[nH]cn3)c2-c2ccc(O)cc2)cc1` as the molecule, how does the Kd read?
Answer: 275 µM

Question: For `Nc1[nH]nc(-c2ccc(O)cc2)c1-c1ccc(O)cc1`, which Kd is on record?
Answer: 40 µM

Question: For `Oc1ccc(-c2n[nH]c(NCc3ccco3)c2-c2ccc(O)cc2)cc1`, which Kd is on record?
Answer: 24 µM

Question: With `Oc1ccc(-c2n[nH]c(NCc3ccc(O)c(Br)c3)c2-c2ccc(O)cc2)cc1` as the molecule, how does the Kd read?
Answer: 19 µM

Question: With `Oc1ccc(-c2n[nH]c(NCc3ccsc3)c2-c2ccc(O)cc2)cc1` as the molecule, how does the Kd read?
Answer: 18 µM

Question: Which Kd does the source give for `O=C(Nc1[nH]nc(-c2ccc(O)cc2)c1-c1ccc(O)cc1)c1ccc(O)cc1` here?
Answer: 78 µM

Question: Which Kd does the source give for `Nc1[nH]nc(-c2cccc(F)c2)c1-c1ccc(O)cc1` here?
Answer: 252 µM

Question: Which Kd does the source give for `Oc1ccc(Nc2cc(-c3ccc(O)cc3)[nH]n2)cc1` here?
Answer: 10.6 µM

Question: With `Nc1[nH]nc(-c2ccc(O)cc2O)c1-c1ccc(O)cc1` as the molecule, how does the Kd read?
Answer: 181 µM

Question: For `Oc1ccc(-n2cncn2)cc1`, which Kd is on record?
Answer: 1700 µM

Question: Which Kd does the source give for `Oc1ccc(-c2n[nH]c(NCc3ccc4[nH]ccc4c3)c2-c2ccc(O)cc2)cc1` here?
Answer: 60 µM

Question: Which Kd does the source give for `Oc1ccc(-c2n[nH]c(NCc3ccncc3)c2-c2ccc(O)cc2)cc1` here?
Answer: 240 µM

Question: With `Nc1[nH]ncc1-c1ccc(O)cc1` as the molecule, how does the Kd read?
Answer: 1870 µM

Question: Which Kd does the source give for `Nc1cccc(-c2cccc(-c3c(-c4ccc(O)cc4)n[nH]c3N)c2)c1` here?
Answer: 0.74 µM

Question: Which Kd does the source give for `Nc1cccc(-c2cccc(-c3cn[nH]c3N)c2)c1` here?
Answer: 140 µM

Question: Which Kd does the source give for `Oc1ccc(-c2n[nH]c(NCc3cccc4[nH]ncc34)c2-c2ccc(O)cc2)cc1` here?
Answer: 45 µM

Question: Which Kd does the source give for `O=C(Nc1[nH]nc(-c2ccc(O)cc2)c1-c1ccc(O)cc1)c1ccccc1` here?
Answer: 160 µM

target: Cytochrome P450 2D6 (Homo sapiens, UniProt P10635); assay: Inhibition of CYP2D6 in human liver microsomes using dextromethorphan as substrate by LC-MS/MS analysis; type: ADME; details: not given
Sequence (P10635 whole entry): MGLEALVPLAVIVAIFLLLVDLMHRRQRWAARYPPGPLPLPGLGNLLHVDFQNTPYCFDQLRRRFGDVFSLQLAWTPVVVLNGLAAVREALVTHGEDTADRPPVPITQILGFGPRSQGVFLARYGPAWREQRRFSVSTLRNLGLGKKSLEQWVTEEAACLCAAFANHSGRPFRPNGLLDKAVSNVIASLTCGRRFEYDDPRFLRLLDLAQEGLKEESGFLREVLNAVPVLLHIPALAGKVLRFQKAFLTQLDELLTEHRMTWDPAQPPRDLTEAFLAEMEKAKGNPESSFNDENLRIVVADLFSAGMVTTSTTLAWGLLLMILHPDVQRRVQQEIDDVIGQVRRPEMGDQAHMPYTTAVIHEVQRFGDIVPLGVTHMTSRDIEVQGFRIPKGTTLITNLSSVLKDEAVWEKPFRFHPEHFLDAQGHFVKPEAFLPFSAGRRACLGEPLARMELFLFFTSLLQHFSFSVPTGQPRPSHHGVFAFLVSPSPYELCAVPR

Question: For `Oc1ccc(CNc2[nH]nc(-c3ccc(O)cc3)c2-c2ccc(O)cc2)cc1`, which IC50 is on record?
Answer: > 25 µM

Question: For `Nc1cccc(-c2cccc(-c3c(-c4ccc(O)cc4)n[nH]c3N)c2)c1`, which IC50 is on record?
Answer: > 25 µM

Question: With `Nc1cccc(-c2cccc(-c3cn[nH]c3N)c2)c1` as the molecule, how does the IC50 read?
Answer: > 25 µM

target: T3, Mycocyclosin synthase; assay: not given; parameters: species or system C41(DE3); details: not given

Question: Which Kd does the source give for `COc1ccc(-c2n[nH]c(N)c2-c2cccc(-c3cccc(N)c3)c2)cc1` here?
Answer: 0.034 µM

Question: With `Nc1cccc(-c2cccc(-c3c(-c4ccc(O)cc4)n[nH]c3N)c2)c1` as the molecule, how does the Kd read?
Answer: 0.015 µM

Question: Which Kd does the source give for `Nc1cccc(-c2cccc(-c3cn[nH]c3N)c2)c1` here?
Answer: 14 µM

Question: With `Nc1ccc(-c2cccc(-c3cn[nH]c3N)c2)cc1` as the molecule, how does the Kd read?
Answer: 230 µM
